The structures appear in SMILES notation.

From patent US8778966B2, “Quinolinone derivatives as PARP and tank inhibitors” (Janssen Pharmaceutica, NV, priority 2007, dated 2014) come the findings set out here.

Experiment [1] concerns the target T1, Human PARP-1 enzyme (Homo sapiens, UniProt P09874).
T1 construct: purchased Trevigen
The experiment is described as follows: In vitro Scintillation Proximity Assay (SPA) for PARP-1 inhibitory activity. To be noted: read-out: in vitro SPA assay PARP-1 pIC50 (converted). It counts as biochemical. On the procedure:
Compounds of the present invention were tested in an in vitro assay based on SPA technology (proprietary to GE healthcare).
In principle, the assay relies upon the well established SPA technology for the detection of poly(ADP-ribosyl)ation of biotinylated target proteins, i.e histones. This ribosylation is induced using nicked DNA activated PARP-1 enzyme and [^3H]-nicotinamide adenine dinucleotide ([^3H]-NAD^+) as ADP-ribosyl donor.
Histones (type II-A, supplier: Sigma) were biotinylated using the biotinylation kit of Amersham and stored aliquoted at −20° C. A stock solution of 100 mg/ml SPA poly(vinyl toluene) (PVT) beads (supplier: Amersham) was made in PBS. A stock solution of 61.6 nM [^3H]-NAD^+ was made by adding [^3H]-NAD^+ (0.1 mCi/ml, supplier: Perkin Elmer) to incubation buffer (50 mM Tris/HCl, pH 8; 0.2 mM DTT; 4 mM MgCl2). A solution of 4 mM NAD^+ (supplier: Sigma) was made. Human PARP-1 enzyme was obtained from Trevigen. Biotinylated histones and PVT-SPA beads were mixed and pre-incubated for 30 min. at room temperature. PARP-1 enzyme (concentration was lot dependent) was mixed with the nicked DNA and the mixture was pre-incubated for 30 min. at 4° C. Equal parts of this histones/PVT-SPA beads solution and PARP-1 enzyme/DNA solution were mixed and 75 μl of this mixture together with 1 μl of compound in DMSO and 25 μl of [^3H]-NAD^+ was added per well into a 96-well microtiterplate. The final concentrations in the incubation mixture were 2 μg/ml for the biotinylated histones, 2 mg/ml for the PVT-SPA beads, 0.25 μg/ml for the nicked DNA and between 0.1-0.2 μg/ml for the PARP-1 enzyme. After incubation of the mixture for 20 min. at room temperature, the reaction was terminated by adding 100 μl of 4 mM NAD^+ in water (final concentration 2 mM) and plates were mixed. The beads were sedimented by centrifugation (10 min, 800 rpm). and plates transferred to a TopCountNXT™ (Packard) for scintillation counting, values were expressed as counts per minute (cpm). For each experiment, controls (containing PARP-1 enzyme and DMSO without compound), a blank incubation (containing DMSO but no PARP-1 enzyme, no DNA or compound) and samples (containing PARP-1 enzyme, DNA and compound dissolved in DMSO) were run in parallel. All compounds tested were dissolved and eventually further diluted in DMSO. A dose-response curve was made wherein the compounds were tested at concentrations between 10^−5M and 3×10^−9M. In each test, the blank value was subtracted from both the control and the sample values. The control sample represented maximal PARP-1 enzyme activity. For each sample, the amount of cpm was expressed as a percentage of the mean cpm value of the controls. When appropriate, IC50-values (concentration of the drug, needed to reduce the PARP-1 enzyme activity to 50% of the control) were computed using linear interpolation between the experimental points just above and below the 50% level. Herein the effects of test compounds are expressed as pIC50 (the negative log value of the IC50-value). As a reference compound, 4-amino-1,8-naphthalimide was included to validate the SPA assay.

The test system of experiment [2] is HCT116 cells. The experiment is described as follows: Antiproliferative activity, Alamar Blue assay, HCT116 cells. It is filed as cell-based, human. Conditions: Homo sapiens, HCT-116, HCT116 cells; read-out: HCT116 antiproliferative activity pIC50 (converted). On the procedure:
Human colon carcinoma HCT116 cells obtained from the ATCC were cultured in McCoy's 5 A medium supplemented with 2 mM L-Glutamine, 50 μg/ml gentamicin and 10% heat inactivated fetal calf serum.
(§1) Resazurin was purchased from Aldrich (Prod. No. 199303). Potassium ferrocyanide, potassium ferricyanide, KH2PO4 and K2HPO4 were purchased from Sigma (Prod. Nos. P9387, P8131, P5655 and P8281, respectively).
(§2) Potassium Phosphate Buffer 0.1 M (PPB) was made as follows: 2.72 gram KH2PO4 and 13.86 gram K2HPO4 were dissolved in 500 ml milli-Q H2O, the pH was adjusted to pH 7.4 and the volume was brought to 1 litre with milli-Q H2O; the buffer was filter sterilised and stored at room temperature. Resazurin stock solution (PPB-A) was prepared fresh by dissolving 45 mg resazurin in 15 ml PBS. 30 mM potassium ferricyanide (PPB-B) was prepared by dissolving 0.987 gram potassium ferricyanide in 100 ml PPB. 30 mM potassium ferrocyanide (PPB-C) was prepared by dissolving 1.266 gram potassium ferrocyanide in 100 ml PPB.
(§3) Mixture of PPB-A, PPB-B and PPB-C was prepared by mixing equal volumes of the respective solutions. Resazurin work solution (herein termed “Alamar Blue” solution) was prepared by diluting said mixture 20×(vol/vol) in PPB and filter sterilising; the Alamar Blue solution could be kept at 4° C. for a maximum of 2 weeks.
(§4) For experiments in 384 wells plates the cells were seeded at a density of 4.5×10^3 cells/ml in Falcon 384-well culture plates (Life Technologies, Merelbeke, Belgium), black with clear bottom, in 45 μl culture medium. Cells were allowed to adhere to plastic for 24 hr. The tested compound was pre-diluted (1/50 in culture medium) and 5 μl pre-diluted compound was added to the wells. Following 4-day incubation, 10 μl of the Alamar Blue solution was added to each well and the cells were further incubated for 4 hrs (HCT116) or 24 hrs (PC-3) at 37° C. The fluorescence intensity was measured for each well on a Fluorescence plate reader (Fluorskan, Labsystems, 540 nm excitation and 590 nm emission)
(§5) The antiproliferative activity was calculated as percentage of remaining viable cells in treated versus control (untreated cells) conditions. Within an experiment, the result for each experimental condition is the mean of 3 replicate wells. When appropriate, the experiments were repeated to establish full concentration-response curves. When appropriate, IC50-values (concentration of the drug, needed to reduce cell growth to 50% of the control) were computed using probit analysis for graded data (Finney, D. J., Probit Analyses, 2nd Ed. Chapter 10, Graded Responses, Cambridge University Press, Cambridge 1962). Herein the effects of test compounds are expressed as pIC50 (the negative log value of the IC50-value) (see Table 2).
(In general: The colour change of resazurin is a common sign of viable cells or microbes.)

The subject of experiment [3] is PC-3 cells. The experiment is described as follows: Antiproliferative activity, Alamar Blue assay, PC-3 cells. It is filed as cell-based, human. Conditions: Homo sapiens, PC-3, PC3 cells; read-out: PC3 antiproliferative activity pIC50 (converted). On the procedure: Human prostate cancer PC-3 cells obtained from the ATCC were cultured in HAM′S F12 medium supplemented with 1 mM Sodium Pyruvate, 1.5 g/L Sodium Bicarbonate, 50 μg/ml gentamicin, non-essential amino acids and 10% fetal calf serum.
as §1, §2, §3, §4, §5

Experiment [4] concerns PC3 cells. Put plainly: EB1 Comet (microtubule disruption) assay. It counts as cell-based, human. To be noted: Homo sapiens, PC-3, 1 h, 1 hour treatment, read-out: EB1 pLAC (converted). On the procedure:
The Eb1 Comet assay relies on the detection of the Eb1 protein at the plus end of polymerizing microtubules (Mimori-Kiyosue, 2000) using indirect immunofluorescence. Disruption of microtubule dynamics through de-polymerization or stabilization results in a de-localization of Eb1 from the growing microtubule ends and this is visualized by the disappearance of Eb1 containing cytoplasmic foci.
Briefly, human prostate cancer PC3 cells obtained from the American Type Culture Collection were grown in 96-well plates (Greiner, cat. no. 655090) in HAM's F12 medium as recommended by the provider (ATCC). The cells were treated for 1 hour at 37° C. with compounds dissolved in DMSO (0.6% final DMSO concentration). The culture medium was then removed by aspiration and the cells were fixed by adding cold methanol (−20 C). After a 15 min. incubation at −20 C, the cells were washed twice with DPBS (Gibco) containing 0.5% Triton X-100. Mouse Eb1 antibody (BD Transduction Laboratories, cat. no. 610534) was added to the cells (1/250 dilution in DPBS containing 1% BSA) and incubated overnight at room temperature. The antibody was subsequently removed and the cells washed twice with DPBS, 0.5% Triton X-100. Secondary goat anti-mouse antibody conjugated to Alexa 488 fluorescent dye (Molecular Probes) was added at a 1/500 dilution in DPBS, 1% BSA and incubated for 1 hour at 37 C. The cells were washed twice with DPBS, 0.5% Triton X-100 and then DPBS containing 0.5% Triton X-100 and 1/5000 Hoechst 33342 (Molecular Probes) was added. Microscopy based Eb1 foci visualization was carried out using an IN Cell Analyser 1000 (Amersham Biosciences) using a 20× objective. Compound dependent microtubule disruption was visually determined by the disappearance in Eb1 foci. The lowest active concentration (LAC) was determined as the concentration where Eb1 foci were absent in at least 50% of the treated cells.

Experiment [5] addresses T2, TANK-2 enzyme (Homo sapiens, UniProt Q9H2K2).
T2 construct: made in house
T2 sequence (Q9H2K2 1-1166): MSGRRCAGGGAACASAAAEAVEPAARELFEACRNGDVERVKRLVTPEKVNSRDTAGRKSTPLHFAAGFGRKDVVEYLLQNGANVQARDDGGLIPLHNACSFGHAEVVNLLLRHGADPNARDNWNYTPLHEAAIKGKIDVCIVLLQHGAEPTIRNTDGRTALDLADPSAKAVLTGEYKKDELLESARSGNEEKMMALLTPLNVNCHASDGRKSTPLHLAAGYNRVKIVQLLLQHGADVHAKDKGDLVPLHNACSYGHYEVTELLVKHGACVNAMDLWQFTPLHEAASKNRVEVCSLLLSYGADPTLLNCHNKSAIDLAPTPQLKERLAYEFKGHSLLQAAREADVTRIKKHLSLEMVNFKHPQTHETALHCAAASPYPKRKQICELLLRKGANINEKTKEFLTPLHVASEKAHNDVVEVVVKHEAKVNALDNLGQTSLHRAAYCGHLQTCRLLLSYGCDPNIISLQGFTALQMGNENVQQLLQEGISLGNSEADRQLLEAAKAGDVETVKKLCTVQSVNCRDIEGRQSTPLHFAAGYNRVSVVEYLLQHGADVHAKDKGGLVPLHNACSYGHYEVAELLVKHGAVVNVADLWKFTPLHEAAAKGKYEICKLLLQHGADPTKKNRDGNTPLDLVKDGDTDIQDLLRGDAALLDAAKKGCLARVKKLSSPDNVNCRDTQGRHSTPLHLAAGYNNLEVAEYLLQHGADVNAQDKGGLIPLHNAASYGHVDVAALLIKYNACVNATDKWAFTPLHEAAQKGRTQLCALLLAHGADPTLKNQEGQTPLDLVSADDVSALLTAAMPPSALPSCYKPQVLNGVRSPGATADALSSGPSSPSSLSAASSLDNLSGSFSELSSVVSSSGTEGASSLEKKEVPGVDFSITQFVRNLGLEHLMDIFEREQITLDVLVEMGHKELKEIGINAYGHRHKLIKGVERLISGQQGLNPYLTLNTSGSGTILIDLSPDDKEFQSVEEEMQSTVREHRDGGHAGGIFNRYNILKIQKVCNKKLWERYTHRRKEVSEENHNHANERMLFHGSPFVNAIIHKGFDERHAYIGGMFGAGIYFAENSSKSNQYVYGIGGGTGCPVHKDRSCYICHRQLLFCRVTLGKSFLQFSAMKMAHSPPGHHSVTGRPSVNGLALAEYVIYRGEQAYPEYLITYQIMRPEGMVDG
Put plainly: In vitro Scintillation Proximity Assay (SPA) for TANK-2 inhibitory activity. It counts as biochemical. To be noted: read-out: in vitro SPA assay TANK-2 pIC50 (converted). On the procedure:
Compounds of the present invention were tested in an in vitro assay based on SPA technology with Ni Flash plates (96 or 384 well). In principle, the assay relies upon SPA technology for the detection of auto-poly(ADP-ribosyl)ation of TANK-2 protein using [^3H]-nicotinamide adenine dinucleotide ([^3H]-NAD^+) as ADP-ribosyl donor.
A stock solution of 100 nM [3H]-NAD^+/NAD (0.1 mCi/ml, supplier: Perkin Elmer) and 0.25 μM NAD (Sigma) was made in assay buffer (60 mM Tris/HCl, pH 7.4; 0.9 mM DTT; 6 mM MgCl2). The TANK-2 enzyme was produced as described in EP1238063. 60 μl of assay buffer, together with 1 μl of compound in DMSO, 20 μl of [^3H]-NAD^+/NAD and 20 μl of TANK-2 enzyme (final concentration 8 μg/ml) was added per well into a 96-well Ni-coated flash plate (Perkin Elmer). After incubation of the mixture for 120 min. at room temperature, the reaction was terminated by adding 60 μl of stopsolution (42.6 mg NAD in 6 ml H2O). The plates were covered with a plate sealer and placed in a TopCountNXT™ (Packard) for scintillation counting. Values were expressed as counts per minute (cpm). For each experiment, controls (containing TANK-2 enzyme and DMSO without compound), a blank incubation (containing DMSO but no TANK-2 enzyme or compound) and samples (containing TANK-2 enzyme and compound dissolved in DMSO) were run in parallel. All compounds tested were dissolved and eventually further diluted in DMSO. In first instance, compounds were tested at a concentration of 10^−5M. […] In each test, the blank value was subtracted from both the control and the sample values. The control sample represented maximal TANK-2 enzyme activity. For each sample, the amount of cpm was expressed as a percentage of the mean cpm value of the controls. When appropriate, IC50-values (concentration of the drug, needed to reduce the TANK-2 enzyme activity to 50% of the control) were computed using linear interpolation between the experimental points just above and below the 50% level. Herein the effects of test compounds are expressed as pIC50 (the negative log value of the IC50-value). As reference compounds, 3-aminobenzamide and 4-amino-1,8-naphtalimide were included to validate the SPA assay. Herein the assay was described using 96-well plates. In the assay using 384-well plates the same final concentrations were used and volumes were adapted.

T1 sequence (P09874 whole entry): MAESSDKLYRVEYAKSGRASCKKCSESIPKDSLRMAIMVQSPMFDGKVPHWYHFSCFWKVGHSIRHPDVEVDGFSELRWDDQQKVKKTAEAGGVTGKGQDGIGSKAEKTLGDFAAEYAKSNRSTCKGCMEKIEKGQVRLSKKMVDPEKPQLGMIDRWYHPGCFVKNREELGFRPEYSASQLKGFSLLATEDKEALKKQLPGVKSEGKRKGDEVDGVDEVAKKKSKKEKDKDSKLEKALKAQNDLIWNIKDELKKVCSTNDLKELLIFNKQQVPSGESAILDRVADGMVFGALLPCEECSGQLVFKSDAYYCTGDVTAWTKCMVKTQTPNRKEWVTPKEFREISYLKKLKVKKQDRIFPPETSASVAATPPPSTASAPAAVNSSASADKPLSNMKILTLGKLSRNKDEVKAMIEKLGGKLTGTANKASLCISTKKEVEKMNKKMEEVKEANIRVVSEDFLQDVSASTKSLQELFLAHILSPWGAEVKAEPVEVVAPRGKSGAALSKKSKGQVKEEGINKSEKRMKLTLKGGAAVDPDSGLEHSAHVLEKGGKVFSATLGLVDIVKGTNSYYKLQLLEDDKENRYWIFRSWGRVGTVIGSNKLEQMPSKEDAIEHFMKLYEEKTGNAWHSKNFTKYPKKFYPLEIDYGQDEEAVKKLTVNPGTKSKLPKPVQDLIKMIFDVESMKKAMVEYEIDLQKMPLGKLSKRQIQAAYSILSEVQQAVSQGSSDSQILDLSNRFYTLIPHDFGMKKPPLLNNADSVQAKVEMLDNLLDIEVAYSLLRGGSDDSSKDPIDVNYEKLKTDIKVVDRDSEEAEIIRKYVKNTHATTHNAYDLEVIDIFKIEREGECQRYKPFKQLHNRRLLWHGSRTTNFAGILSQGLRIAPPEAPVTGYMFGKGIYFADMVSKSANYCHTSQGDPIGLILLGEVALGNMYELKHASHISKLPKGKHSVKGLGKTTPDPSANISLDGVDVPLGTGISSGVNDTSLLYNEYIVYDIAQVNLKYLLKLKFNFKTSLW

For the compound `Cc1cc2ccc([C@](C)(C#N)[C@H]3CCc4cc(Br)ccc43)cc2[nH]c1=O` [Compound 239], the IC50 in experiment [1] is 0.501 µM; in experiment [2] it was 2 µM; in experiment [3], 2.51 µM. Further, in experiment [4], the minimal effective concentration is 1 µM.
For `Cc1cc2ccc([C@@](C)(C#N)[C@H]3CCCc4ccccc43)cc2[nH]c1=O` [Compound 384], the IC50 in experiment [1] is 0.0501 µM; in experiment [5], 1 µM.
For `Cc1cc2ccc([C@@](C)(C#N)[C@@H]3CCc4ccc(Br)cc43)cc2[nH]c1=O` [Compound 408], the results for the IC50 in experiment [1], in experiment [2] and in experiment [3] were 0.251 µM, 5.01 µM and 10 µM, respectively.
